# Results: US8759332B2, “Hepatitis C virus inhibitors” (Enanta Pharmaceuticals, Inc., priority 2009, dated 2014)
# System: HCV 1b genotype replicon
# Experiment: HCV replicon assay (qRT-PCR or luciferase), genotype 1b
# Assay type: cell-based
# Details: Hepatitis C virus, read-out: Genotype-1b replicon EC50 Range
# Text: HCV replicon cell lines (kindly provided by R. Bartenschlager) isolated from colonies as described by Lohman et. al. (Lohman et al. (1999) Science 285: 110-113, expressly incorporated by reference in its entirety) and used for all experiments. The HCV replicon has the nucleic acid sequence set forth in EMBL Accession No.: AJ242651, the coding sequence of which is from nucleotides 1801 to 8406.
# The coding sequence of the published HCV replicon was synthesized and subsequently assembled in a modified plasmid pBR322 (Promega, Madison, Wis.) using standard molecular biology techniques. One replicon cell line (“SGR 11-7”) stably expresses HCV replicon RNA which consists of (i) the HCV 5′UTR fused to the first 12 amino acids of the capsid protein, (ii) the neomycin phosphotransferase gene (neo), (iii) the IRES from encephalomyocarditis virus (EMCV), and (iv) HCV NS2 to NS5B genes and the HCV 3′UTR. Another replicon cell line (“Huh-luc/neo-ET”) described by Vrolijk et. al. (Vrolijk et. al. (2003) Journal of Virological Methods 110:201-209, expressly incorporated by reference in its entirety) stably expresses HCV replicon RNA which consists of (i) the HCV 5′UTR fused to the first 12 amino acids of the capsid protein, (ii) the firefly luciferase reporter gene, (iii) the ubiquitin gene, (iv) the neomycin phosphotransferase gene (neo), (v) the IRES from encephalomyocarditis virus (EMCV), and (vi) HCV NS3 to NS5B genes that harbor cell culture adaptive mutations (E1202G, T12801, K1846T) and the HCV 3′UTR.
# These cell lines were maintained at 37° C., 5% CO2, 100% relative humidity in DMEM (Cat#11965-084, Invitrogen), with 10% fetal calf serum (“FCS”, Invitrogen), 1% non-essential amino acids (Invitrogen), 1% of Glutamax (Invitrogen), 1% of 100× penicillin/streptomycin (Cat#15140-122, Invitrogen) and Geneticin (Cat#10131-027, Invitrogen) at 0.75 mg/ml or 0.5 mg/ml for 11-7 and Huh-luc/neo-ET cells, respectively.
# EC50 values of single agent compounds and combinations were determined by HCV RNA detection using quantitative RT-PCR, according to the manufacturer's instructions, with a TAQMAN® One-Step RT-PCR Master Mix Reagents Kit (Cat# AB 4309169, Applied Biosystems) on an ABI Model 7500 thermocycler. The TaqMan primers used for detecting and quantifying HCV RNA were obtained from Integrated DNA Technologies. HCV RNA was normalized to GAPDH RNA levels in drug-treated cells, which was detected and quantified using the Human GAPDH Endogenous Control Mix (Applied Biosystems, AB 4310884E). Total cellular RNA was purified from 96-well plates using the RNAqueous 96 kit (Ambion, Cat#AM1812). Chemical agent cytotoxicity was evaluated using an MTS assay according to the manufacturer's directions (Promega).
# Since clinical drug resistance often develops in viral infections following single agent therapies, there is a need to assess the additive, antagonistic, or synergistic properties of combination therapies. We use the HCV replicon system to assess the potential use of the compound of the present invention or in combination therapies with Interferon alpha, cyclosporine analogs and inhibitors targeting other HCV proteins. The acute effects of a single or combinations of drugs are studied in the “Huh-luc/neo-ET” replicon with each chemical agent titrated in an X or Y direction in a 6 point two-fold dilution curve centered around the EC50 of each drug. Briefly, replicon cells are seeded at 7,000 cells per well in 90 ul DMEM (without phenol red, Invitrogen Cat.#31053-036) per well with 10% FCS, 1% non-essential amino acids, 1% of Glutamax and 1% of 100× penicillin/streptomycin and incubated overnight at 37° C., 5% CO2, 100% relative humidity. […]
row,SMILES,EC50 [nM]
1,COC(=O)N[C@H](C(=O)N[C@H]1CCC[C@@H]1Nc1ncc(-c2ccc3cc(-c4c[nH]c([C@@H]5CCCN5C(=O)[C@@H](NC(=O)OC)C(C)C)n4)ccc3c2)cn1)C(C)C (racemic) [373a and 373b],< 1
2,COC(=O)N[C@H](C(=O)N1CCC[C@H]1CNc1ncc(-c2ccc3cc(-c4c[nH]c([C@@H]5CCCN5C(=O)[C@@H](NC(=O)OC)C(C)C)n4)ccc3c2)cn1)C(C)C [Example 83],> 10
3,COC(=O)N[C@H](C(=O)N1CCC[C@H]1CNc1ncc2cc(-c3ccc(-c4c[nH]c([C@@H]5CCCN5C(=O)[C@@H](NC(=O)OC)C(C)C)n4)cc3)ccc2n1)C(C)C [Example 294],< 1
4,COC(=O)N[C@H](C(=O)N1CCC[C@H]1CNc1ccc(-c2ccc3cc(-c4c[nH]c([C@@H]5CCCN5C(=O)[C@@H](NC(=O)OC)C(C)C)n4)ccc3c2)cn1)C(C)C [Example 296],< 1
5,COC(=O)N[C@H](C(=O)N1CCC[C@H]1CNc1nc2ccc(-c3ccc(-c4c[nH]c([C@@H]5CCCN5C(=O)[C@@H](NC(=O)OC)C(C)C)n4)cc3)cc2s1)C(C)C [Example 305],< 1
6,COC(=O)N[C@H](C(=O)N1CCC[C@H]1CNc1ncc(C#Cc2ccc3nc([C@@H]4CCCN4C(=O)[C@@H](NC(=O)OC)C(C)C)[nH]c3c2)cn1)C(C)C [Example 313],> 10
7,COC(=O)N[C@H](C(=O)N1CCC[C@H]1CNc1ncc2cc(C#Cc3ccc4[nH]c([C@@H]5CCCN5C(=O)[C@@H](NC(=O)OC)C(C)C)nc4c3)ccc2n1)C(C)C [Example 322],1 to 10
8,COC(=O)N[C@H](C(=O)N1CCC[C@H]1CNc1ncc(-c2ccc(-c3cnc(NC[C@@H]4CCCN4C(=O)[C@@H](NC(=O)OC)C(C)C)nc3)cc2)cn1)C(C)C [Example 370],> 10
9,COC(=O)N[C@H](C(=O)N1CCC[C@H]1CNc1nc2ccc(-c3ccc4nc(NC[C@@H]5CCCN5C(=O)[C@@H](NC(=O)OC)C(C)C)sc4c3)cc2s1)C(C)C [Example 377],> 10
10,COC(=O)N[C@H](C(=O)N1CCC(Nc2ncc(-c3ccc4cc(-c5c[nH]c([C@@H]6CCCN6C(=O)[C@@H](NC(=O)OC)C(C)C)n5)ccc4c3)cn2)C1)C(C)C (stereo partly shown) [Example 382],1 to 10
11,COC(=O)N[C@H](C(=O)N1CCC(Nc2ncc(-c3ccc(-c4c[nH]c([C@@H]5CCCN5C(=O)[C@@H](NC(=O)OC)C(C)C)n4)cc3)cn2)C1)C(C)C (stereo partly shown) [Example 384],1 to 10
12,COC(=O)N[C@H](C(=O)N1CCC[C@H]1CNc1nc2ccc(-c3ccc4cc(-c5c[nH]c([C@@H]6CCCN6C(=O)[C@@H](NC(=O)OC)C(C)C)n5)ccc4c3)cc2s1)C(C)C [Example 386],< 1
13,CCC(CNc1ncc(-c2ccc3cc(-c4c[nH]c([C@@H]5CCCN5C(=O)[C@@H](NC(=O)OC)C(C)C)n4)ccc3c2)cn1)NC(=O)[C@@H](NC(=O)OC)C(C)C (stereo partly shown) [Example 388],> 10
14,CCC(CNc1ncc(-c2ccc3cc(-c4c[nH]c([C@@H]5CCCN5C(=O)[C@@H](NC(=O)OC)C(C)C)n4)ccc3c2)cn1)N(C)C(=O)[C@@H](NC(=O)OC)C(C)C (stereo partly shown) [Example 390],1 to 10
15,COC(=O)N[C@H](C(=O)N1CCC[C@@H]1CNc1ncc(-c2ccc3cc(-c4cnc([C@@H]5CCCN5C(=O)[C@@H](NC(=O)OC)C(C)C)[nH]4)ccc3c2)cn1)C(C)C [Example 393],1 to 10
16,COC(=O)N[C@H](C(=O)N1CCC[C@H]1CNc1ncc(C#Cc2ccc(-c3cnc([C@@H]4CCCN4C(=O)[C@@H](NC(=O)OC)C(C)C)[nH]3)cc2)cn1)C(C)C [Example 394],> 10
